Test results published in patent US20160122320A1, “USEFUL COMBINATIONS OF MONOBACTAM ANTIBIOTICS WITH BETA-LACTAMASE INHIBITORS” (Basilea Pharmaceutica AG, priority 2005, published 2016).
Counter-ions that a name gives are not always drawn. Blank lines part the entries; values can stand above or below the compound they belong to.

How the values were obtained:
Experiment in all cases: MIC, NCCLS broth microdilution
Type in all cases: cell-based
[1] = tested on: Klebsiella pneumoniae CF104; conditions: for MIC of antibiotic at fixed inhibitor concentration (4 mg/L): MIC of antibiotic compound 1 with the labelled bridged monobactam of formula II and clavulanate, 4 mg/L each
Acinetobacter sp. J2 = conditions: for MIC of antibiotic at fixed inhibitor concentration (4 mg/L): Acinetobacter sp. J2, MIC of antibiotic compound 1 with the labelled bridged monobactam of formula II and clavulanate, 4 mg/L each
[2] = tested on: Pseudomonas aeruginosa 1973E; conditions: for MIC of antibiotic at fixed inhibitor concentration (4 mg/L): MIC of antibiotic compound 1 with the labelled bridged monobactam of formula II and clavulanate, 4 mg/L each
Description: Antimicrobial activity of the compounds and of their combinations was determined against a selection of organisms according to the standard procedures described by the National Committee for Clinical Laboratory Standards (National Committee for Clinical Laboratory. Standards (2000). Methods for Dilution Antimicrobial Susceptibility Tests for Bacteria That Grow Aerobically-Fifth Edition: Approved Standard M7-A5. NCCLS, Wayne, Pa., USA).
In all cases the final concentration of DMSO incubated with the bacteria is less than or equal to 1%. […] Plates were incubated overnight at an appropriate temperature (30° C. or 37° C.) and optical densities assessed by eye. The MIC value is defined as the lowest compound concentration completely inhibiting visible growth of the test organism. When combinations between compounds of formula I with compounds of formula II and are evaluated the compounds of formula I are tested in dilution series as described above while the compounds of formula II and III-XIII were present in all wells at a constant concentration of 4 μg/mL each.

[3] = tested on: Stenotrophomonas malthophilia 1AC736; conditions: for MIC of antibiotic at fixed inhibitor concentration (4 mg/L): Stenotrophomonas malthophilia 1AC736, MIC of antibiotic compound 1 with the labelled bridged monobactam of formula II and clavulanate, 4 mg/L each
Enterobacter cloacae P99 = conditions: for MIC of antibiotic at fixed inhibitor concentration (4 mg/L): MIC of antibiotic compound 1 with the labelled bridged monobactam of formula II and clavulanate, 4 mg/L each
[4] = tested on: Pseudomonas aeruginosa MK1184; conditions: for MIC of antibiotic at fixed inhibitor concentration (4 mg/L): MIC of antibiotic compound 1 with the labelled bridged monobactam of formula II and clavulanate, 4 mg/L each
Serratia marcescens S6 = conditions: for MIC of antibiotic at fixed inhibitor concentration (4 mg/L): MIC of antibiotic compound 1 with the labelled bridged monobactam of formula II and clavulanate, 4 mg/L each

- MIC of antibiotic at fixed inhibitor concentration (4 mg/L) [1]: 0.5 µg/mL
- MIC of antibiotic at fixed inhibitor concentration (4 mg/L) (Acinetobacter sp. J2): 8 µg/mL
- MIC of antibiotic at fixed inhibitor concentration (4 mg/L) [2]: 8 µg/mL
- MIC of antibiotic at fixed inhibitor concentration (4 mg/L) [3]: 0.125 µg/mL
- MIC of antibiotic at fixed inhibitor concentration (4 mg/L) (Enterobacter cloacae P99): 32 µg/mL
- MIC of antibiotic at fixed inhibitor concentration (4 mg/L) [4]: 16 µg/mL
- MIC of antibiotic at fixed inhibitor concentration (4 mg/L) (Serratia marcescens S6): 0.125 µg/mL
SMILES: NC(=O)c1cc[n+](CC(=O)N2CC[C@@H]3[C@H]2C(=O)N3S(=O)(=O)[O-])cc1 [Compound 105, (1S,5R)-2-[2-(4-carbamoylpyridinium)acetyl]-7-oxo-2,6-diazabicyclo[3.2.0]heptane-6-sulfonate, inner salt]

- MIC of antibiotic at fixed inhibitor concentration (4 mg/L) [1]: 2 µg/mL
- MIC of antibiotic at fixed inhibitor concentration (4 mg/L) (Acinetobacter sp. J2): >32 µg/mL
- MIC of antibiotic at fixed inhibitor concentration (4 mg/L) [2]: 4 µg/mL
- MIC of antibiotic at fixed inhibitor concentration (4 mg/L) [3]: 0.125 µg/mL
- MIC of antibiotic at fixed inhibitor concentration (4 mg/L) (Enterobacter cloacae P99): 32 µg/mL
- MIC of antibiotic at fixed inhibitor concentration (4 mg/L) [4]: >32 µg/mL
- MIC of antibiotic at fixed inhibitor concentration (4 mg/L) (Serratia marcescens S6): 0.5 µg/mL
SMILES: CN(C)c1ccc(NC(=O)N2CC[C@@H]3[C@H]2C(=O)N3S(=O)(=O)[O-])cc1.[Na+] [Compound 309, Sodium(1S,5R)-2-{N-[4-(dimethylamino)phenyl]carbamoyl}-7-oxo-2,6-diazabicyclo[3.2.0]heptane-6-sulfonate]

- MIC of antibiotic at fixed inhibitor concentration (4 mg/L) [1]: >32 µg/mL
- MIC of antibiotic at fixed inhibitor concentration (4 mg/L) (Acinetobacter sp. J2): 4 µg/mL
- MIC of antibiotic at fixed inhibitor concentration (4 mg/L) [2]: 4 µg/mL
- MIC of antibiotic at fixed inhibitor concentration (4 mg/L) [3]: 0.125 µg/mL
- MIC of antibiotic at fixed inhibitor concentration (4 mg/L) (Enterobacter cloacae P99): 8 µg/mL
- MIC of antibiotic at fixed inhibitor concentration (4 mg/L) [4]: 32 µg/mL
- MIC of antibiotic at fixed inhibitor concentration (4 mg/L) (Serratia marcescens S6): 0.125 µg/mL
SMILES: O=C(Nc1ccc(NC(=O)N2CC[C@@H]3[C@H]2C(=O)N3S(=O)(=O)O)cc1)N1CCNCC1 [Compound 326, (1S,5R)-7-oxo-2-{N-[4-(piperazinylcarbonylamino)phenyl]carbamoyl}-2,6-diazabicyclo[3.2.0]heptane-6-sulfonic acid]

- MIC of antibiotic ([1]; antibiotic alone, no inhibitor): >32 µg/mL
- MIC of antibiotic at fixed inhibitor concentration of 4 mg/L ([1]; with 102 and clavulanate): 0.25 µg/mL
- MIC of antibiotic at fixed inhibitor concentration of 4 mg/L ([1]; with 324 and clavulanate): 0.25 µg/mL
- MIC of antibiotic at fixed inhibitor concentration of 4 mg/L ([1]; with 324 and sulbactam): 4 µg/mL
- MIC of antibiotic (Acinetobacter sp. J2; Acinetobacter baumannii J2, antibiotic alone, no inhibitor): >32 µg/mL
- MIC of antibiotic at fixed inhibitor concentration of 4 mg/L (Acinetobacter sp. J2; Acinetobacter baumannii J2, with 102 and clavulanate): 4 µg/mL
- MIC of antibiotic at fixed inhibitor concentration of 4 mg/L (Acinetobacter sp. J2; Acinetobacter baumannii J2, with 324 and clavulanate): 8 µg/mL
- MIC of antibiotic at fixed inhibitor concentration of 4 mg/L (Acinetobacter sp. J2; Acinetobacter baumannii J2, with 324 and sulbactam): 2 µg/mL
- MIC of antibiotic ([2]; antibiotic alone, no inhibitor): 4 µg/mL
- MIC of antibiotic at fixed inhibitor concentration of 4 mg/L ([2]; with 102 and clavulanate): 4 µg/mL
- MIC of antibiotic at fixed inhibitor concentration of 4 mg/L ([2]; with 324 and clavulanate): 4 µg/mL
- MIC of antibiotic at fixed inhibitor concentration of 4 mg/L ([2]; with 324 and sulbactam): 4 µg/mL
- MIC of antibiotic ([3]; Stenotrophomonas maltophilia 1AC736, antibiotic alone, no inhibitor): 0.5 µg/mL
- MIC of antibiotic at fixed inhibitor concentration of 4 mg/L ([3]; Stenotrophomonas maltophilia 1AC736, with 102 and clavulanate): 1 µg/mL
- MIC of antibiotic at fixed inhibitor concentration of 4 mg/L ([3]; Stenotrophomonas maltophilia 1AC736, with 324 and clavulanate): 1 µg/mL
- MIC of antibiotic at fixed inhibitor concentration of 4 mg/L ([3]; Stenotrophomonas maltophilia 1AC736, with 324 and sulbactam): 1 µg/mL
- MIC of antibiotic (Enterobacter cloacae P99; antibiotic alone, no inhibitor): >32 µg/mL
- MIC of antibiotic at fixed inhibitor concentration of 4 mg/L (Enterobacter cloacae P99; with 102 and clavulanate): 8 µg/mL
- MIC of antibiotic at fixed inhibitor concentration of 4 mg/L (Enterobacter cloacae P99; with 324 and clavulanate): 4 µg/mL
- MIC of antibiotic at fixed inhibitor concentration of 4 mg/L (Enterobacter cloacae P99; with 324 and sulbactam): 4 µg/mL
- MIC of antibiotic ([4]; antibiotic alone, no inhibitor): 8 µg/mL
- MIC of antibiotic at fixed inhibitor concentration of 4 mg/L ([4]; with 102 and clavulanate): 4 µg/mL
- MIC of antibiotic at fixed inhibitor concentration of 4 mg/L ([4]; with 324 and clavulanate): 4 µg/mL
- MIC of antibiotic at fixed inhibitor concentration of 4 mg/L ([4]; with 324 and sulbactam): 4 µg/mL
- MIC of antibiotic (Serratia marcescens S6; antibiotic alone, no inhibitor): 0.13 µg/mL
- MIC of antibiotic at fixed inhibitor concentration of 4 mg/L (Serratia marcescens S6; with 102 and clavulanate): 0.25 µg/mL
- MIC of antibiotic at fixed inhibitor concentration of 4 mg/L (Serratia marcescens S6; with 324 and clavulanate): 0.13 µg/mL
- MIC of antibiotic at fixed inhibitor concentration of 4 mg/L (Serratia marcescens S6; with 324 and sulbactam): 0.13 µg/mL
SMILES: C[C@H]1[C@H](NC(=O)/C(=N\OCc2cc(=O)c(O)cn2O)c2csc(N)n2)C(=O)N1OCC(=O)O [Compound 22, 2-((3S,4S)-3-{(2Z)-2-(2-amino(1,3-thiazol-4-yl))-3-[(1,5-dihydroxy-4-oxo(2-hydropyridyl))methoxy]-3-azaprop-2-enoylamino}-4-methyl-2-oxoazetidinyloxy)acetic acid]
